Measured values: patent publication US20120264928A1, “THERAPEUTIC PHARMACEUTICAL AGENT FOR DISEASES ASSOCIATED WITH DECREASE IN FUNCTION OF GNE PROTEIN, FOOD COMPOSITION, AND FOOD ADDITIVE” (JAPAN HEALTH SCIENCES FOUNDATION, priority 2009, published 2012)

What was measured:
Assay type in all cases: in vivo
DMRV model mice [1] = assay: Pathological observation of muscle tissue
Method: (§1) 20 mg/kg body weight/day of ManNAc (N=6), NeuAc (N=5), or sialyllactose (N=7) dissolved in drinking water was administered to the DMRV model mice between 11- to 15-week old and 56- to 58-week old for 43 to 45 weeks. 40 mg (N=5) or 400 mg/kg body weight/day (N=4) of Ac4ManNAc dissolved in drinking water was administered to the DMRV model mice of the same ages for 43 to 47 weeks. Drinking water free of the pharmaceutical agents was supplied to mice in a placebo group.
(§2) During the administration of the pharmaceutical agent, the measurement of the body weight, the determination of the survival rate, blood collection (0, 25, and 49 days after the start of administration, and thereafter at intervals of 28 days), and a hanging test (0 and 49 days after the start of administration, and thereafter at intervals of 56 days) were performed at regular intervals. Survivors after the administration (ManNAc-treated group: N=5, NeuAc-treated group: N=5, sialyllactose group: N=6) were subjected to a treadmill test. A muscle tissue was then excised and was subjected to a muscle contraction test, the measurement of the amount of NeuAc, and pathological observation.
The gastrocnemius muscle used in the muscle contraction test was frozen in isopentane cooled by liquid nitrogen, and a frozen section having a thickness of 6 μm was prepared with a cryostat. The section was placed on a slide glass. Hematoxylin-eosin (H-E) staining, acid phosphatase activity staining (see Malicdan et al., Method. Enzymol., 453, 379-396, 2009), or Gomori trichrome staining (see Malicdan et al., Method. Enzymol., 453, 379-396, 2009) were performed on adjacent sections. These sections were observed under an optical microscope. A frozen section having a thickness of 10 μm prepared in the same manner as described above was fixed with 4% paraformaldehyde, was stained with congo red, and was observed under a fluorescence microscope.
A frozen section having a thickness of 6 μm prepared in the same manner as described above was fixed with acetone and was blocked with a blocking solution (PBS containing 5% goat normal sera or 2% casein). The section was incubated with an anti-autophagy marker protein LC3 rabbit polyclonal antibody (NB100-2220, Novus Biologicals, 100 times dilution), an anti-β-amyloid rabbit polyclonal antibody (Aβ1-40, AB5074P, Chemicon, 100 times dilution), an anti-β-amyloid rabbit polyclonal antibody (Aβ1-42, AB5078P, Chemicon, 100 times dilution), an anti-phosphorylated tau mouse monoclonal antibody (90206, Innogenetics, 100 times dilution), an anti-amyloid mouse monoclonal antibody (6E10, Covance, 400 times dilution), an anti-p62 protein rabbit polyclonal antibody (PW9860, Biomol, 500 times dilution), or an anti-lysosome-associated membrane protein 2 (Lamp 2) rabbit polyclonal antibody (ABL-93, obtained from Developmental Studies Hybridoma Bank at the University of Iowa, 100 times dilution) at room temperature for one hour. If necessary, Alexa Fluor 488 or 568 labeled anti-rabbit/mouse IgG(H+L) (Molecular Probes) was used as a secondary antibody. Immunostained preparations of these sections were observed under a fluorescence microscope. The congo red staining and the LC3 labeling were performed on adjacent sections.
It is known that rimmed vacuoles found in muscle tissues of a patient suffering from myopathy are positive for acid phosphatase. […] Tau protein is phosphorylated with amyloid β-protein. In myopathy caused by a mutation of the GNE gene, it is known that lysosomal vesicles that contain localized Lamp 2 protein are accumulated. It is also known that p62 protein recognizes polyubiquitin protein and directly binds to LC3 to induce autophagy in a portion that contains accumulated polyubiquitinated protein. In a muscle tissue affected by myopathy, p62 protein is colocalized with amyloid.

DMRV model mice [2] = assay: Amount of NeuAc in muscle tissue of treated DMRV model mice; details: vs placebo group
Method: (§3) DMRV model mice were GNE^(−/−)hGNED176V-Tg described in Japanese Unexamined Patent Application Publication No. 2007-312641. Healthy litters having no GNE gene mutation were used as controls. The mice in the present example freely take water and feed and ingest 14 mg/kg body weight/day of N-acetylneuraminic acid compound on average.
In the case that the sample was cultured cells, the cells were washed with PBS three times, and 400 p. 1 of 50 mM sulfuric acid was added to the cells. The cells were incubated at 80° C. for 60 minutes and were hydrolyzed to release NeuAc and NeuGc. In the case that the sample was a piece of tissue, the tissue was frozen, was pulverized with an air hammer, and was homogenized in a KCl-tris solution. The precipitate was again washed with the KCl-tris solution and was hydrolyzed in 50 mM sulfuric acid at 80° C. for one hour to release NeuAc and NeuGc. 400 μl of 7 mmol 1,2-diamino-4,5-methylenedioxybenzene, dihydrochloride (MDB, Dojindo Laboratories) solution (15.8 mg MDB, 48.8 mg Na2S2O4, and 735 μl 2-mercaptoethanol were dissolved in distilled water so as to prepare a 10-ml solution) was added to the sample containing free NeuAc and NeuGc and was allowed to react at 60° C. for 2.5 hours. The fluorescent derivative thus prepared was analyzed with HPLC (JASCO Corp.) using 0.05 to 5 nmol/μl Neu5Ac and Neu5Gc standards. The amount of protein from the tissue was measured with a Bio-Rad Protein Assay kit (Bio-Rad Laboratories).
as §1, §2

DMRV model mice [3] = assay: Survival rate of treated DMRV model mice; details: vs placebo group
Method: as §3, §1, §2

DMRV model mice [4] = assay: Hanging test; details: 20 mg/kg body weight/day in drinking water; vs placebo group
Method: as §1, §2
A wire net having a 6-mm lattice pattern made of wires having a diameter of approximately 0.5 mm was placed on a tube having a height of 50 cm. A mouse was made to hang on the wire net, and the time elapsed before the mouse fell down was measured. The time was measured three times for each mouse.

DMRV model mice [5] = assay: Number of formed rimmed vacuoles and amyloid-positive cells; details: 20 mg/kg body weight/day in drinking water; vs placebo group
Method: as §1, §2
In six H-E stained pathological sections having a thickness of 10 μm prepared at intervals of 100 μm, the number of rimmed vacuoles observed over the cross section of the muscular tissue was counted. In order to count the number of amyloid-positive protein deposits, the number of cells having deposits labeled with an anti-amyloid antibody (6E10) observed over the cross section of the muscular tissue was counted in six sections having a thickness of 10 μm prepared at intervals of 100 μm.

DMRV model mice [6] = assay: Blood creatine kinase activity; details: 20 mg/kg body weight/day in drinking water; vs placebo group
Method: as §1, §2
During the administration of the pharmaceutical agent, blood was collected from a tail of a mouse at regular intervals. The blood was centrifuged to prepare blood serum. Blood creatine activity was measured with a Determiner CPK-L kit (Kyowa Medex Co., Ltd.). The blood serum was electrophoresed using a Titan Gel Isoenzyme kit (Helen Laboratories) to identify creatine kinase. It is known that creatine kinase moves into blood when strenuous exercise or myopathy damages muscle fibers.

[7] = 20 mg/kg body weight/day in drinking water
[8] = 20 mg/kg body weight/day in drinking water, vs placebo group
[9] = 20 mg/kg body weight/day in drinking water, 43 to 45 weeks

Compound | hanging time (DMRV model mice [4]) | acid phosphatase activity staining (DMRV model mice [1]; [7]) | congo red staining (amyloid) (DMRV model mice [1]; [7]) | labeling with the anti-phosphorylated tau antibody (DMRV model mice [1]; [7]) | rimmed vacuoles and muscle cell atrophy (H-E staining) (DMRV model mice [1]; [7]) | labeling with the anti-amyloid antibodies (LC3, Aβ1-40, and Aβ1-42) (DMRV model mice [1]; [8]) | amount of NeuAc in the muscle tissue (DMRV model mice [2]; [7]) | number of amyloid positive cells (DMRV model mice [5]) | number of rimmed vacuoles (DMRV model mice [5]) | blood creatine kinase activity (DMRV model mice [6]) | survival rate (DMRV model mice [3]; [9]) | other results
CC(=O)N[C@@H]1C(OC(C)=O)O[C@H](COC(C)=O)[C@@H](OC(C)=O)[C@@H]1OC(C)=O (stereo partly drawn) [Ac4ManNAc, Tetra-O-acetyl-N-acetylmannosamine] |  |  |  |  |  |  |  |  |  |  |  | Aβ1-42 labeling (DMRV model mice [1]; 40 mg/kg): negative; Lamp 2 staining (DMRV model mice [1]; 40 mg/kg): very slightly stained; acid phosphatase activity staining (DMRV model mice [1]; 40 mg/kg): dispersed sites that were positive; p62 protein labeling (DMRV model mice [1]; 40 mg/kg): negative; frequencies of rimmed vacuoles and muscular atrophy (DMRV model mice [1]; 40 mg/kg, vs placebo group): much lower; Aβ1-42 labeling (DMRV model mice [1]; 400 mg/kg): negative; Lamp 2 staining (DMRV model mice [1]; 400 mg/kg): negative; acid phosphatase activity staining (DMRV model mice [1]; 400 mg/kg): negative; p62 protein labeling (DMRV model mice [1]; 400 mg/kg): negative; rimmed vacuoles and muscle cell atrophy (DMRV model mice [1]; 400 mg/kg): no rimmed vacuole or muscle cell atrophy; amount of NeuAc in the muscle tissue (DMRV model mice [2]; 400 mg/kg): significantly higher; survival rate (DMRV model mice [3]; 40 or 400 mg/kg body weight/day in drinking water, 43 to 47 weeks): higher
CC(=O)N[C@@H]1C(O)O[C@H](CO)[C@@H](O)[C@@H]1O (stereo partly drawn) [ManNAc, N-acetylmannosamine, reference compound] | longer | negative | only the placebo group was fluorescently labeled | Only the placebo group was also labeled | no rimmed vacuole or muscle cell atrophy | markedly reduced | significantly higher | significantly lower | significantly lower | significantly lower | significantly higher | 
CC(=O)N[C@H]1[C@H]([C@H](O)[C@H](O)CO)OC(O)(C(=O)O)C[C@@H]1O (stereo partly drawn) [NeuAc, N-acetylneuraminic acid] | longer | negative | only the placebo group was fluorescently labeled | Only the placebo group was also labeled | no rimmed vacuole or muscle cell atrophy | markedly reduced | significantly higher | significantly lower | significantly lower | significantly lower | significantly higher | 
CC(=O)N[C@H]1[C@H]([C@H](O)[C@H](O)CO)O[C@@](O[C@H]2[C@@H](O)[C@@H](CO)O[C@@H](O[C@H]3[C@H](O)[C@@H](O)C(O)O[C@@H]3CO)[C@@H]2O)(C(=O)O)C[C@@H]1O (stereo partly drawn) [sialyllactose, NeuAcα2-3Galβ1-4Glc] | longer | negative | only the placebo group was fluorescently labeled | Only the placebo group was also labeled | no rimmed vacuole or muscle cell atrophy | markedly reduced | significantly higher | significantly lower | significantly lower | significantly lower | significantly higher | 
